Test results taken from PubChem BioAssay (NCI).
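The compound was tested at five concentrations on cells cultured in 96-well plates, with a 48-hour exposure period. GI50 is the concentration that inhibits growth by half. TGI denotes the concentration required for complete inhibition of growth.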

How the values were obtained:
Experiment in all cases: NCI-60 cell line screen, 48 h
OVCAR-8 ovarian = test system: OVCAR-8 ovarian
SK-OV-3 ovarian = test system: SK-OV-3 ovarian
PC-3 prostate = test system: PC-3 prostate
MCF7 breast = test system: MCF7 breast
HCT-15 colon = test system: HCT-15 colon
OVCAR-3 ovarian = test system: OVCAR-3 ovarian
NCI/ADR-RES ovarian = test system: NCI/ADR-RES ovarian
SR leukemia = test system: SR leukemia
DU-145 prostate = test system: DU-145 prostate
786-0 renal = test system: 786-0 renal
SNB-19 CNS = test system: SNB-19 CNS
TK-10 renal = test system: TK-10 renal
M14 melanoma = test system: M14 melanoma
LOX IMVI melanoma = test system: LOX IMVI melanoma
NCI-H226 lung = test system: NCI-H226 lung
MDA-MB-231 breast = test system: MDA-MB-231 breast
A549 NSCLC = test system: A549 NSCLC
U251 CNS = test system: U251 CNS
A498 renal = test system: A498 renal
KM12 colon = test system: KM12 colon
SK-MEL-2 melanoma = test system: SK-MEL-2 melanoma
ACHN renal = test system: ACHN renal
EKVX NSCLC = test system: EKVX NSCLC
IGROV1 ovarian = test system: IGROV1 ovarian
OVCAR-5 ovarian = test system: OVCAR-5 ovarian
BT-549 breast = test system: BT-549 breast
SF-295 CNS = test system: SF-295 CNS
K-562 leukemia = test system: K-562 leukemia
NCI-H522 lung = test system: NCI-H522 lung
HCC-2998 colon = test system: HCC-2998 colon
HCT-116 colon = test system: HCT-116 colon
SW-620 colon = test system: SW-620 colon
SNB-75 CNS = test system: SNB-75 CNS
NCI-H23 lung = test system: NCI-H23 lung
SF-268 CNS = test system: SF-268 CNS
HOP-62 NSCLC = test system: HOP-62 NSCLC
HS 578T breast = test system: HS 578T breast
SN12C renal = test system: SN12C renal
HT29 colon = test system: HT29 colon
HOP-92 NSCLC = test system: HOP-92 NSCLC
CAKI-1 renal = test system: CAKI-1 renal
RXF 393 renal = test system: RXF 393 renal
OVCAR-4 ovarian = test system: OVCAR-4 ovarian
UACC-62 melanoma = test system: UACC-62 melanoma
MDA-MB-435 = test system: MDA-MB-435
SK-MEL-5 melanoma = test system: SK-MEL-5 melanoma
MALME-3M melanoma = test system: MALME-3M melanoma
UACC-257 melanoma = test system: UACC-257 melanoma
SF-539 CNS = test system: SF-539 CNS
COLO 205 colon = test system: COLO 205 colon
SK-MEL-28 melanoma = test system: SK-MEL-28 melanoma
UO-31 renal = test system: UO-31 renal
RPMI-8226 leukemia = test system: RPMI-8226 leukemia
NCI-H460 lung = test system: NCI-H460 lung
HL-60(TB) leukemia = test system: HL-60(TB) leukemia

COc1ccc(NC2=C(Cl)C(=O)C(C)=C(C)C2=O)cc1
GI50 (OVCAR-8 ovarian): 1.84 µM
TGI (OVCAR-8 ovarian): 3.84 µM
GI50 (SK-OV-3 ovarian): 10.8 µM
TGI (SK-OV-3 ovarian): 22.7 µM
GI50 (PC-3 prostate): 4.51 µM
TGI (PC-3 prostate): 20.6 µM
GI50 (MCF7 breast): 2.35 µM
TGI (MCF7 breast): 6.05 µM
GI50 (HCT-15 colon): 13.7 µM
TGI (HCT-15 colon): 27.9 µM
GI50 (OVCAR-3 ovarian): 2.12 µM
TGI (OVCAR-3 ovarian): 4.53 µM
GI50 (NCI/ADR-RES ovarian): 2.89 µM
TGI (NCI/ADR-RES ovarian): 9.87 µM
GI50 (SR leukemia): 2.37 µM
TGI (SR leukemia): 8.06 µM
GI50 (DU-145 prostate): 25.2 µM
TGI (DU-145 prostate): 69.8 µM
GI50 (786-0 renal): 18.7 µM
TGI (786-0 renal): 34 µM
GI50 (SNB-19 CNS): 10.3 µM
TGI (SNB-19 CNS): 22.1 µM
GI50 (TK-10 renal): 28.6 µM
TGI (TK-10 renal): 52.1 µM
GI50 (M14 melanoma): 12 µM
TGI (M14 melanoma): 26.6 µM
GI50 (LOX IMVI melanoma): 1.79 µM
TGI (LOX IMVI melanoma): 3.59 µM
GI50 (NCI-H226 lung): 12.3 µM
TGI (NCI-H226 lung): 27.6 µM
GI50 (MDA-MB-231 breast): 1.99 µM
TGI (MDA-MB-231 breast): 4.49 µM
GI50 (A549 NSCLC): 21.7 µM
TGI (A549 NSCLC): > 100 µM
GI50 (U251 CNS): 7.5 µM
TGI (U251 CNS): 21 µM
GI50 (A498 renal): 18 µM
TGI (A498 renal): 47.2 µM
GI50 (KM12 colon): 3.75 µM
TGI (KM12 colon): 44.3 µM
GI50 (SK-MEL-2 melanoma): 11 µM
TGI (SK-MEL-2 melanoma): 24.1 µM
GI50 (ACHN renal): 3.94 µM
TGI (ACHN renal): 13.6 µM
GI50 (EKVX NSCLC): 1.79 µM
TGI (EKVX NSCLC): 3.43 µM
GI50 (IGROV1 ovarian): 1.78 µM
TGI (IGROV1 ovarian): 3.35 µM
GI50 (OVCAR-5 ovarian): 16.8 µM
TGI (OVCAR-5 ovarian): 35.7 µM
GI50 (BT-549 breast): 13.3 µM
TGI (BT-549 breast): 26.6 µM
GI50 (SF-295 CNS): 10.3 µM
TGI (SF-295 CNS): 23.7 µM
GI50 (K-562 leukemia): 2.58 µM
TGI (K-562 leukemia): 9.59 µM
GI50 (NCI-H522 lung): 13.3 µM
TGI (NCI-H522 lung): 29.5 µM
GI50 (HCC-2998 colon): 16.8 µM
TGI (HCC-2998 colon): 31.7 µM
GI50 (HCT-116 colon): 2 µM
TGI (HCT-116 colon): 4.37 µM
GI50 (SW-620 colon): 3.92 µM
TGI (SW-620 colon): 18.9 µM
GI50 (SNB-75 CNS): 4.49 µM
TGI (SNB-75 CNS): 19.1 µM
GI50 (NCI-H23 lung): 14.8 µM
TGI (NCI-H23 lung): 55 µM
GI50 (SF-268 CNS): 11.4 µM
TGI (SF-268 CNS): 52.2 µM
GI50 (HOP-62 NSCLC): 12.2 µM
TGI (HOP-62 NSCLC): 25.4 µM
GI50 (HS 578T breast): 17.4 µM
TGI (HS 578T breast): 72.4 µM
GI50 (SN12C renal): 12.7 µM
TGI (SN12C renal): 26.3 µM
GI50 (HT29 colon): 23.5 µM
TGI (HT29 colon): 54.1 µM
GI50 (HOP-92 NSCLC): 1.4 µM
TGI (HOP-92 NSCLC): 2.84 µM
GI50 (CAKI-1 renal): 10.4 µM
TGI (CAKI-1 renal): 22.2 µM
GI50 (RXF 393 renal): 9.13 µM
TGI (RXF 393 renal): 21.4 µM
GI50 (OVCAR-4 ovarian): 1.71 µM
TGI (OVCAR-4 ovarian): 3.1 µM
GI50 (UACC-62 melanoma): 10.6 µM
TGI (UACC-62 melanoma): 22.7 µM
GI50 (MDA-MB-435): 2.74 µM
TGI (MDA-MB-435): 7.13 µM
GI50 (SK-MEL-5 melanoma): 6.45 µM
TGI (SK-MEL-5 melanoma): 19.1 µM
GI50 (MALME-3M melanoma): 14 µM
TGI (MALME-3M melanoma): 28.2 µM
GI50 (UACC-257 melanoma): 1.86 µM
TGI (UACC-257 melanoma): 3.96 µM
GI50 (SF-539 CNS): 15.5 µM
TGI (SF-539 CNS): 29.4 µM
GI50 (COLO 205 colon): 19.2 µM
TGI (COLO 205 colon): 38.8 µM
GI50 (SK-MEL-28 melanoma): 14.9 µM
TGI (SK-MEL-28 melanoma): 28.8 µM
GI50 (UO-31 renal): 11.1 µM
TGI (UO-31 renal): 23.1 µM
GI50 (RPMI-8226 leukemia): 2.23 µM
TGI (RPMI-8226 leukemia): 5.69 µM
GI50 (NCI-H460 lung): 25.5 µM
TGI (NCI-H460 lung): > 100 µM
GI50 (HL-60(TB) leukemia): 2.18 µM
TGI (HL-60(TB) leukemia): 5.54 µM
